The values that follow come from patent US5583000A, “Protease-binding compounds and methods of use” (priority 1993, dated 1996).

The target of data set [1] is T1, HIV-1 PR (Human immunodeficiency virus type 1 group M subtype B, UniProt P03369). As to the kind of experiment: biochemical. In kind it is binding. Particulars: 1 h, pH 8; preincubation 10 μM one hour, then radio-labelled UCSF84 200 μM; read-out: blocking of radioactivity incorporation to HIV-1 PR.
In the next data set the target is HIV-1 PR C95M (Human immunodeficiency virus type 1 group M subtype B, UniProt P03369, C585M). Nature of the data set: Protection experiment, incorporation of radio-labelled UCSF84. In kind it is binding. The settings on record: preincubation 10 μM, then radio-labelled UCSF84.
Data set [2] concerns the target T2, HIV-2 PR (Human immunodeficiency virus type 2 subtype A, UniProt P04584).
T2 construct: HIV-2 PR (at a final concentration of 30 μg/mL); made in house
Described as above. It is filed as binding.

Another data set addresses HIV-1 PR Q7K (Human immunodeficiency virus type 1 group M subtype B, UniProt P03369, Q497K). In kind it is biochemical.
Data set [3] concerns the target T2, HIV-2 PR. As to the kind of experiment: biochemical. The settings on record: for KI (inactivation): inhibitor concentration resulting in half-maximal inactivation, pH 8.0, 25° C., read-out: kinact (μM) HIV-2; for kinact: pH 8, maximum inactivation rate, read-out: Vinact (min^-1 × 10^3) HIV-2 (converted). It is filed as biochemical.
For data set [4], the target named is T3, HIV-1 protease (Human immunodeficiency virus type 1 group M subtype B, UniProt P03369). As to the kind of experiment: biochemical.
In data set [5] the target is T1, HIV-1 PR. Particulars: pH 8.
Experimental: Once full inhibition was achieved, the enzyme was isolated by reverse phase HPLC on a C3 -Zorbax Protein Plus column (4.6 mm×25 cm), using a 100-minute linear gradient from 5 to 65% acetonitrile in 0.1% TFA. The flow rate was 1 mL/min and the eluent was monitored at 220 nm. The two major components of the isolated sample were concentrated under vacuum, dissolved in a small volume of 50% acetonitrile and 1% acetic acid, and their molecular weights determined by electrospray mass spectrometry. The spectra were recorded on a VG EIectrospray. Mass Spectrometer Model Bio-Q.
The nature of data set [6]: in vitro.
Experimental: Cytotoxicity. The MTT assay was performed as follows:
The cells were seeded in 96-well plates and grown overnight to near 50% confluency. A serial dilution (1 to 500 μM) of each compound in culture media was prepared and 250 μL/well was added in duplicate. The cells were allowed to grow for various periods of time (6, 24, 48 hours) and any precipitation of compounds in the wells was noted. The assay was performed by removing 200 μL of the culture media and adding 25 μL of MTT solution (2 mg/mL in phosphate buffered saline (PBS)). This was incubated for 4 hours at 37° C. and live cells began to turn purple while the solution remained yellow. To quench the reaction and solubilize the reaction product, 160 μL of acidified isopropanol (4 mL 1N HCl for 96 mL alcohol) were added and the resulting mixture was mixed vigorously to dissolve purple crystals. Absorbance was determined at 550-570 nm on an ELISA plate reader within 0.5-2 hours. […] To obtain the LD50 values for each compound, the concentration at which the absorbance is haft of that for the untreated cells was determined.
Data set [7] in a line: in vitro. The settings on record: african green monkey, cos-7 cells.
Experimental: (§1) MTT cell viability assay. This is a quantitative colorimetric assay for mammalian cell survival and proliferation. Cells were seeded in 96 well plates and grown to near 50% confluency. A serial dilution (1 to 500 μM) of each compound was then prepared in culture media and added (250 μL/well) in duplicate. All culture media was adjusted to a final concentration of 1.0% DMSO (volume basis). The cells were allowed to grow for either 4 hours or 24 hours. The culture media were then removed, and the cells were washed with phosphate buffered saline (PBS) before 50 μL of MTT solution (1 mg/mL in PBS) was added. After incubating for 4 hours at 37° C., the reaction was quenched by adding 160 μL of acidified isopropanol and mixing to dissolve purple crystals. The absorbance was determined within 30 minutes at 570 nm on an ELISA plate reader.
(§2) The cytotoxic effect of the inhibitors was determined using the MTT stain viability assay.
Another data set concerns HIV. Nature of the data set: HeLa/T4 infectivity assay with replication-defective virions from transfected COS-7 cells. It is filed as cell-based. The settings on record: Human immunodeficiency virus 1, HeLaT4; 100 μM, 4-hour treatment; read-out: Hela/T4 Infection % Colony Reduction.
Data set [8] is described as follows: MTT cell viability assay (Tables 5 and 7). Particulars: african green monkey, cos-7 cells.
Experimental: as §1, §2
The subject of a further data set is p24. As to the kind of experiment: p24 core antigen ELISA of virus from treated COS-7 cells. The settings on record: Human immunodeficiency virus 1, COS-7, 4 h, read-out: % p24 Relative to Untreated.
Data set [9] addresses T3, HIV-1 protease. In kind it is cell-based. Also noted: fused to amino acids 5 (Asp) to 179 (Trp) of the pol region; human superoxide dismutase (hSOD, 153 residues) (N); Phe-Arg-Glu are pol residues) (N); additional Pro residue of pol (C); expressed in transfected cells; host or cells: E. coli strain D1210 harboring plasmid pSOD/PR179. Particulars: 500 μM.

The structures appear in SMILES notation. In brackets after ≈: the same amount, converted by molar mass. Read-outs that look alike come from different tables or passages of the source.

T2 sequence (P04584 514-612 limits assumed): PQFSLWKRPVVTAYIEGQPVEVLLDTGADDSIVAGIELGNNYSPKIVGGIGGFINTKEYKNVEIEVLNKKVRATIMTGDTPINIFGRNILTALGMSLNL
Experimental for p24: Drug treatment. The compounds were added 48 hours post-transfection, at the peak of virus production, and the incubation was restricted to a 4-hour period. […] Culture media were adjusted to the desired concentration of these compounds just prior to the addition of the media to cells. To avoid precipitation, the compounds were aliquoted first to a tube in sufficient DMSO to yield a 1.0% final concentration, and subsequently the culture medium was added quickly and vortexed. The culture medium was collected after 4 hours of incubation of the cells with each of the compounds. This culture supernatant is the source of virus for measurement of infectivity as well as levels of p24 and other capsid proteins.
p24 Core antigen ELISA assay. An ELISA kit purchased from NEN/Dupont was used to determine the amount of p24 present in culture media or virus preparations. This capture assay uses a monoclonal antibody that preferentially binds p24 while it reacts with larger capsid protein precursors to a very limited extent. The assay was carded out using the manufacturer's indications. Samples were pre-treated with 1% Triton to inactivate the virus.
Virus isolation by ultracentrifugation. The culture medium was filtered through a 0.45 μm syringe filter and was then centrifuged to remove any precipitate. The medium was then spun through a cushion of 20% sucrose in PBS in an SW41 Beckman rotor for 1.5 hours at 35K and 4° C. The pelleted material was collected.
Following incubation of virus-producing cells with various concentrations of the test compounds, the virus particles were isolated by ultracentrifugation. These particles were disrupted using Triton X-100 and the amount of p24 capsid protein was quantitated by ELISA.

`O=[N+]([O-])c1ccc(OCC2CO2)cc1` (stereo not shown) [EPNP, 1,2-epoxy-3-(p-nitrophenoxy)-propane, reference compound]: the inhibition at 10 µM at HIV-1 PR [1] was ~50%. Further, the “incorporation after preincubation of the enzyme” value on HIV-1 PR C95M is “sharply reduced”. Moreover, the “radioactivity incorporation after preincubation” value at HIV-2 PR [2] is “almost complete elimination of radioactivity incorporation”. Besides, the KI (inactivation) at HIV-1 PR Q7K (inhibitor concentration resulting in half-maximal inactivation; pH 8.0, 25° C.; read-out: kinact (μM) HIV-1) stood at 9900 ± 1000 µM. Also, at HIV-2 PR [3], the KI (inactivation) is 6700 ± 600 µM and the kinact was 0.0482 min⁻¹.
As to `O=C(C#CCN1CCC(O)(c2ccc(Cl)cc2)CC1)c1cccc(-c2ccccc2)c1` [UCSF142, 4-(4'-(4"-chlorophenyl)-4'-hydroxypiperidinyl)-1-m-biphenylbut-2-yn-1-one], on HIV-1 protease [4], the “HIV-1 Protease Therapeutic Index (LD50 /IC50)” value was determined as 0.56. 63 µM corresponded to half-maximal inhibition against HIV-1 protease [4] (HIV-1 Protease IC50 (μM) 1M NaCl) (IC50). For the same compound, at HIV-1 PR Q7K (read-out: kinact (μM) HIV-1; inhibitor concentration resulting in half-maximal inactivation; pH 8.0, 25° C.), the KI (inactivation) came to 10.7 ± 1.3 µM. Also, on HIV-2 PR [3], the KI (inactivation) turned out to be 8.6 ± 1 µM and the kinact was 0.0097 min⁻¹. Further, the “molecules of inhibitor bound per HIV-1 protease (molecular weight 11,649)” value on HIV-1 PR [5] is “two molecules”. Moreover, the CC50 at 6 h in “in vitro [6]” came out at 35 µM. In “physchem”, this compound registered a solubility of 100 µM (≈ 43 µg/mL). Besides, in “in vitro [7]”, the CC50 at 4 h is 35 µM and the CC50 at 24 h was < 5 µM.
In the case of `C/C=C/C/C=C/CCC(=O)[C@H]1O[C@H]1C(N)=O` [cerulenin, reference compound], the inhibition at 100 µM in the data set on HIV turned out to be 77%. The compound further returned a CC50 at 4 h in the data set “in vitro [7]” of 900 µM. The same compound gave a cytotoxicity at 4 h, 100 µM in [8] of 0%. Also, the activity at 100 µM in the data set on p24 was determined as 36%. Moreover, on HIV-1 protease [9] (15 minutes (FIG. 11b)), the “inhibition of protein processing (35-kDa and 38-kDa intermediates)” value is “no detectable inhibition”. For the same compound, at HIV-1 protease [9] (120 minutes (FIG. 11c)), the “inhibition of protein processing (intermediate bands)” value is “protein processing inhibition”.

Usually IC50 stands for the concentration that gives 50% inhibition. One may read the solubility as the concentration that dissolves in the medium under given conditions.
